US20260347322A1, “BETA ADRENERGIC AGONIST AND METHODS OF USING THE SAME” (CuraSen Therapeutics, Inc., priority 2019, published 2026)

Legend:
Assay type in all cases: cell-based
[1] = system: Endogenous beta-adrenergic receptor, 1321N1 cells; experiment: cAMP homogeneous time-resolved fluorescence (HTRF) assay, endogenous receptor; conditions: 30 min, 37 °C
Protocol: (§1) CAMP homogeneous time-resolved fluorescence (HTRF): experimental methods. Compound efficacy is determined using the CAMP Gs dynamic HTRF assay (Cisbio, catalog #62AM4PEC) largely following the manufacturer's instructions, also detailed below.
Compound Preparation: Candidate beta-adrenergic compounds, dissolved to 10 mM in DMSO, are diluted in 1× stimulation buffer 1 (Cisbio Part #64Sβ1FDD) containing 1 mM 3-Isobutyl-1-methylxanthene (IBMX; Cayman Chemical Company, catalog #13347). Serial dilutions are made in a 96 well V-bottom polypropylene compound microplate (Corning, catalog #3363) in stimulation buffer containing 1 mM IBMX, to 2× of the final desired concentration. Standard serial dilution curves are 10-point, 5-fold dilutions starting from a highest concentration of 10 μM. Controls present on every assay plate are 0.1% DMSO (vehicle control), 1 μM isoproterenol (full beta-adrenergic agonist control) and 15 μM xamoterol (partial beta-adrenergic agonist control). 5 μL from the 2× compound plate is stamped into a white 384 round well small volume HiBase assay plate (Greiner Bio-One; catalog #784075) to provide 4 technical replicates per concentration, per compound. Assay plates are centrifuged at 500×g for 10 seconds. Compounds and IBMX are prepared at 2× final dose to compensate for addition of cells.
Cell Preparation: 1× stimulation buffer, washing PBS (Dulbecco's phosphate-buffered saline, —Mg—Ca; Caisson Labs, catalog #PBL01), assay PBS (Dulbecco's phosphate-buffered saline, +Mg, +Ca; Caisson Labs, catalog #PBL02) and Versene (0.02% EDTA disodium salt solution in PBS without calcium or magnesium; Caisson Labs, catalog #EDL01) are pre-warmed to 37 °C Cells expressing beta-adrenergic receptor were washed in washing PBS to remove growth medium and then released from the surface by incubating with Versene for 5-10 minutes at 37 °C. Cells are harvested using assay PBS, counted manually by hemocytometer or by an automated cell counter, pelleted by centrifugation (200×g, 5 minutes) and resuspended in 37 °C. 1× stimulation buffer to a final density of 1.5×10^6 cells/mL. […]
HTRF Reagent Addition, Reading and Data Analysis: After 30 minutes of cell stimulation with test compound, the assay plates are centrifuged at 500×g for 10 seconds, and incubation was stopped with the addition of 5 μL cAMP-D2 acceptor, diluted 1:21 in detection and lysis buffer 2 (Cisbio 62CL2FDF) was added to all cells. […] Plates are centrifuged again at 500×g for 10 seconds, and HTRF was measured using a Tecan Spark plate reader at 50 flashes per well. HTRF ratios (665 nm/620 nm×10,000) are determined and plotted in GraphPad Prism to generate a concentration-effect curve. […]

[2] = target: T1, B1-AR (β1 adrenergic receptor) (Homo sapiens, UniProt P08588); experiment: cAMP homogeneous time-resolved fluorescence (HTRF) assay, β1
T1 construct: expressed in transfected cells
Protocol: as §1
(§2) Standard serial dilution curves are 10-point, 5-fold dilutions starting from a highest concentration of 10 μM. […] Assay plates are centrifuged at 500×g for 10 seconds. Compounds and IBMX are prepared at 2× final dose to compensate for addition of cells. […]
(§3) Subsequently, 5 μL Anti-cAMP-Eu Donor, diluted 1:21 in detection and lysis buffer 2, was added to cells. […] Plates are centrifuged again at 500×g for 10 seconds, and HTRF was measured using a Tecan Spark plate reader at 50 flashes per well. […] Potency estimates (EC50 and pEC50) are derived from the four-parameter nonlinear regression of the concentration-effect curve and an estimate of relative efficacy is determined by comparing the magnitude of the test compound HTRF signal window (min-max dose) with the signal window of the full agonist control, isoproterenol.

[3] = target: T2, B2-AR (β2 adrenergic receptor) (Homo sapiens, UniProt P07550); experiment: cAMP homogeneous time-resolved fluorescence (HTRF) assay, β2
T2 construct: expressed in transfected cells
Protocol: as §1, §2, §3

T1 sequence (P08588 whole entry): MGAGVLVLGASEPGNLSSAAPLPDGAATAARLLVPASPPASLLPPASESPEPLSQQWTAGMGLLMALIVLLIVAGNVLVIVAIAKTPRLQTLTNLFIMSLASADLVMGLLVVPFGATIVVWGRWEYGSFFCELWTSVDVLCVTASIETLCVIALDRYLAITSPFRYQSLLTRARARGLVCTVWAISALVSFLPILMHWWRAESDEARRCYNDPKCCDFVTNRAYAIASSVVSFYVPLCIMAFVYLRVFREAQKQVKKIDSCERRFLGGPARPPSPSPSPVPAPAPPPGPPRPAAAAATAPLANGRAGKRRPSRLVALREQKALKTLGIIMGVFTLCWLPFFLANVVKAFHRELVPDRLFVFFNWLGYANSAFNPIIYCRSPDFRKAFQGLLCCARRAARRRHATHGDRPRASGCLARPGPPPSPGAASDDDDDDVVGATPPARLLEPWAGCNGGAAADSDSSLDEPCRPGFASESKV
T2 sequence (P07550 whole entry): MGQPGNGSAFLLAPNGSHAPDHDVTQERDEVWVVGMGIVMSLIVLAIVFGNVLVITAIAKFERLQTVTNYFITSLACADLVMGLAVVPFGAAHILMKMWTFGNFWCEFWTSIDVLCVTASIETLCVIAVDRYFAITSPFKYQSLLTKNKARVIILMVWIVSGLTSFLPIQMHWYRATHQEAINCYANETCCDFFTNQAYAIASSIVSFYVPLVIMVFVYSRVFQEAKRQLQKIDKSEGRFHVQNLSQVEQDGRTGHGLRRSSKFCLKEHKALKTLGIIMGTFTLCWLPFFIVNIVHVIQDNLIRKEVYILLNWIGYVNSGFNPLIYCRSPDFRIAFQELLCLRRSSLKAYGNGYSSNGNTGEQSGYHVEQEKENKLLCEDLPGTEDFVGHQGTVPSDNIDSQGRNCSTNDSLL

Row | SMILES | Average pEC50 [Receptor subtype: Endogenous; Cell type: 1321N1] [1] | EC50 [2] [µM] | EC50 [3] [µM]
1 | CC(C)(C)NC[C@H](O)c1cnc(N)c(Cl)c1 [Compound 02-1] | C (C =< 7-6) | – | –
2 | CC(C)(C)NC[C@@H](O)c1cccc(N)n1 [Compound 02-6] | C (C =< 7-6) | – | –
3 | CC(C)(C)NC[C@H](O)c1cccc(O)n1 [Compound 02-7] | D (D < 6) | – | –
4 | CC(C)(C)NC[C@@H](O)c1cccc(O)n1 [Compound 02-8] | D (D < 6) | – | –
5 | CC(C)(C)NC[C@H](O)c1cncc2[nH]ncc12 [Compound 04-153] | – | > 1 | 0.01 to 0.1
